Test results published in US20250255793A1, “ANTI-AGING CATALYST COMPOSITION COMPRISING A BLEND OF COSMETIC ACIDS” (LOREAL, priority 2024, published 2025).

Tests used:
keratinocytes = experiment: Taurine induced NAD+ stimulation in cultured keratinocytes; type: cell-based; conditions: for NAD+ level: keratinocytes
Protocol: Cell studies were conducted in which the effects of taurine and niacinamide on the NAD+ production were assessed when keratinocytes were cultured with these raw materials. In all of the tested conditions supplemented with actives, the NAD+ of the cells were increased compared to the untreated control.
Taurine has been identified as an active of interest for skin care due to its potential benefits to boost cell energy. This report explores the effect of supplementing taurine with keratinocytes to understand its effect on increasing NAD+ level in the cells. […] In our in vitro study, we observed that vitamin C, vitamin E and ferulic acid imparts significant benefits to the cell cycle and cell division. When combined with anti-aging catalyst composition, the treatment not only enhances skin renewal and resurfacing benefits but also maintains the positive effects on cell cycle and cell division. This is evident in the more pronounced impact on pathways related to skin cornification and epidermis development compared to single type treatment.

[1] = tested on: UVB-induced wrinkle formation; conditions: oral taurine supplementation; cited from earlier work
[2] = tested on: diabetic precataractous lens; conditions: dietary taurine supplementation; cited from earlier work

SMILES: NCCS(=O)(=O)O [taurine]
- NAD+ level (keratinocytes; 0.05% taurine): comparable NAD+ level as compared to 0.2% niacinamide
- NAD+ of the cells compared to the untreated control (keratinocytes; keratinocytes cultured with raw material): stimulatory effect in increasing the NAD+ level
- UVB-induced wrinkle formation [1]: suppress
- MDA levels, GSSG/GSH, and NAD+/NADH [2]: ameliorates

SMILES: NC(=O)c1cccnc1 [niacinamide, reference compound]
- NAD+ level (keratinocytes; 0.2% niacinamide): higher level of NAD+ compared to 0.05% niacinamide
